# Experimental data from patent US5736529A, “Use of NAD-related compounds in the treatment of neural trauma to inhibit neurodegeneration” (priority 1996, dated 1998).
# Where two headings read alike, the source gives them in different places.
# Experiments:
# [1] = tested on: DNA in brain regions of C57BL/6 mice; test: Second experiment, tBuOOH induced DNA fragmentation (FIG. 2, FIG. 3); type: in vivo, mouse (male C57BL/6)
# Method: A second experiment was conducted to measure the degree of DNA fragmentation. […] Male C57BL/6 mice, of ages 2, 8 or 24 months old, were treated with tBuOOH ICV. Mice in the 20 minute group were treated with 110 mg/kg of tBuOOH and maintained for 20 minutes until brains were removed and analyzed for DNA fragmentation. This dose of tBuOOH induces cellular necrosis in a number of brain regions. Mice in the 48 hour group were given 22 mg/kg of tBuOOH and maintained for 48 hours. This dose of tBuOOH induces apoptosis and a small amount of necrosis in a number of brain regions.
# [2] = tested on: DNA in brain regions of C57BL/6 mice; details: for DNA fragmentation, low dose: 21.9 mg/kg
# Method: 24 month old C57BL/6 mice were divided into 3 groups of 3 mice each. One group was the control. A second group of mice was treated ICV with 109.7 mg/kg t-BuOOH and then sacrificed 20 minutes later. A third group of mice were treated ICV with 21.9 mg/kg t-BuOOH and then sacrificed 48 hours later. […] The brains were removed from the treated mice and were sectioned into the following six regions: cortex, striatum, hippocampus, thalamus, midbrain and cerebellum. DNA damage has been expressed as a ratio of the damaged DNA to the total DNA per gram of tissue.
# DNA fragmentation was assessed in […] samples of tissue from a brain region. A volume of 0.2 ml of ice cold lysing buffer (10 mM Tris-HCl, pH 7.5, 1 mM EDTA, and 0.2% Triton X-100) was added to each section, which was then centrifuged at 12,000 g for 25 minutes to separate the intact from the fragmented DNA. The supernatant (containing the fragmented DNA) was transferred to a separate tube. 0.2 ml of the lysing buffer was added to the pellet with sonication for 10 seconds. The amount of DNA in the supernatant and pellet fractions was determined by a fluorimetric method, using the dye Hoechst 33258. DNA damage is presented as the ratio of DNA in the supernatant to the total DNA in the pellet and supernatant per gram of tissue^17.
# 8 month old mice were divided into 4 groups (n=5 each). Group 1 was the control. Mice in group 2 were treated with 109.7 mg/kg t-BuOOH and then sacrificed 20 minutes later. […] The same procedures were performed as with the 24 month old mice.
# DNA in brain of mice = type: in vivo, mouse (8 month old C47BL/6); details: 21.9 mg/kg t-BuOOH ICV; 48 hours; 8 month old mice
# Method: A gel electrophoresis was performed to investigate whether the DNA fragmentation that is observed at the end of 48 hours is due to apoptosis or not (FIG. 7). 8 month old C47BL/6 mice were treated with ICV with 21.9 mg/kg t-BuOOH 48 hours prior to removal of the brains. Brains were added to lysing buffer and centrifuged. The supernatants were collected as in the DNA fragmentation assay. The samples were extracted with an equal volume of phenol/chloroform/isoamyl alcohol (25:24:1). The DNA in the aqueous phase was precipitated by adding an equal volume of 100% ethanol and maintained at -20° C. overnight. DNA was collected by centrifugation at 12,000 g for 25 minutes, air dried and resuspended in TBE buffer (90 mM Tris, 90 mM boric acid and 2 mM EDTA, pH 8.0). Horizontal electrophoresis was performed for 2 hours at 100 volts in a 0.75% agarose gel with TBE buffer. The gel was stained with ethidium bromide and photographed by UV transillumination.
# [3] = 8 month old mice, 109.7 mg/kg t-BuOOH, 20 min
# [4] = 8 month old mice, 109.7 mg/kg t-BuOOH, 20 min, * p<0.05 vs control
# [5] = 24 month old mice, 21.9 mg/kg t-BuOOH ICV, 48 hours, * p<0.05 vs control
# [6] = 24 month old mice, 109.7 mg/kg t-BuOOH ICV, 20 min, * p<0.05 vs control
smiles,measurement,setting,value
"CC(C)(C)OO [tBuOOH, t-butylhydroperoxide]",DNA fragmentation in the cerebellum,"[1]; 2, 8 and 24 month old mice, 48 hours",increased significantly
same,DNA fragmentation in the cortex,[1]; 2 and 8 month old mice,no increase in DNA fragmentation in the cortex
same,"DNA fragmentation in the striatum, midbrain and hippocampus",[1]; 2 month old mice,increased DNA fragmentation
same,tBuOOH induced necrosis in the thalamus at 20 minutes,[1]; 8 and 24 month old vs 2 month old mice,8 and 24 month old mice are more sensitive than 2 month old mice
same,DNA fragmentation in the cortex,"[1]; 24 month old mice, also found in the hippocampus",robust increase in DNA fragmentation in the cortex
same,apoptosis induced DNA fragmentation in the thalamus,[1]; 48 hours after tBuOOH,found only in 24 month old mice
same,time of appearance of DNA fragments in the brain,[1]; after tBuOOH administration,≤ 2 min
same,"DNA fragmentation, low dose",[2]; 8 month old mice,significantly higher DNA fragmentation values were seen only in the cerebellum
same,"DNA fragmentation, low dose",[2]; 24 month old mice,significant increases in DNA fragmentation were observed in almost all brain regions (except the striatum)
same,DNA fragmentation in the cortex or hippocampus,"[2]; 109.7 mg/kg, 8 month old mice",no significant increase in DNA fragmentation
same,DNA fragmentation in many brain regions,"[2]; 109.7 mg/kg, 24 and 8 month old mice",Significant DNA fragmentation
same,"DNA fragmentation, cortex",[2]; [3],0.83 ± 0.14 per gram of tissue
same,"DNA fragmentation, hippo",[2]; [3],0.768 ± 0.16 per gram of tissue
same,"DNA fragmentation, cerebellum",[2]; [4],1.16 ± 0.15 per gram of tissue
same,"DNA fragmentation, midbrain",[2]; [4],2.37 ± 0.43 per gram of tissue
same,"DNA fragmentation, striatum",[2]; [4],2.33 ± 0.46 per gram of tissue
same,"DNA fragmentation, thala",[2]; [4],2.65 ± 0.88 per gram of tissue
same,DNA fragmentation in the cerebellums (FIG. 5),"[2]; 8 month old mice, p<0.05",Statistically significantly different from control values and tBuOOH with nicotinamide
same,"DNA fragmentation, striatum","[2]; 24 month old mice, 21.9 mg/kg t-BuOOH ICV, 48 hours",1.94 ± 0.31 per gram of tissue
same,"DNA fragmentation, cerebellum",[2]; [5],1.71 ± 0.45 per gram of tissue
same,"DNA fragmentation, cortex",[2]; [5],1.55 ± 0.19 per gram of tissue
same,"DNA fragmentation, hippo",[2]; [5],1.43 ± 0.23 per gram of tissue
same,"DNA fragmentation, midbrain",[2]; [5],2.04 ± 0.53 per gram of tissue
same,"DNA fragmentation, thala",[2]; [5],2.13 ± 0.31 per gram of tissue
same,"DNA fragmentation, cerebellum",[2]; [6],1.84 ± 0.45 per gram of tissue
same,"DNA fragmentation, cortex",[2]; [6],1.73 ± 0.23 per gram of tissue
same,"DNA fragmentation, hippo",[2]; [6],1.44 ± 0.20 per gram of tissue
same,"DNA fragmentation, midbrain",[2]; [6],2.77 ± 0.65 per gram of tissue
same,"DNA fragmentation, striatum",[2]; [6],2.46 ± 0.33 per gram of tissue
same,"DNA fragmentation, thala",[2]; [6],2.52 ± 0.43 per gram of tissue
same,DNA fragments on gel electrophoresis,DNA in brain of mice,Oligosomal sized DNA fragments were observed along with a smear of fragmentation
